From PubChem BioAssay AID248 (DTP/NCI, 2004)
Several values for one entry are separate records, joined by “and”; a condition that tells them apart may be missing. Equal values may be shown once. Inconclusive results and toxic doses are left out. Rule as the data show it: active = T/C of 150% or more; inactive = T/C below 125%.

Tested on: L1210 leukemia ip in BDF1 mice, survival T/C
Experiment: NCI In Vivo Anticancer Drug Screen. Data for tumor model L1210 Leukemia (intraperitoneal) in B6D2F1 (BDF1) mice
Details: endpoint: mean survival time, higher = longer survival
Outline: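 Value reflects the ratio of survival in compound-treated mice to survival in vehicle-treated controls, with both groups carrying the same transplanted tumor.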

[1] = dose: 50.0 mg/kg/injection, schedule: Q01DX001 (ip), vehicle: carboxymethylcellulose (CMC)
[2] = dose: 100.0 mg/kg/injection, schedule: Q01DX001 (ip), vehicle: carboxymethylcellulose (CMC)
[3] = dose: 200.0 mg/kg/injection, schedule: Q01DX001 (ip), vehicle: carboxymethylcellulose (CMC)
[4] = dose: 400.0 mg/kg/injection, schedule: Q01DX001 (ip), vehicle: carboxymethylcellulose (CMC)
[5] = dose: 100.0 mg/kg/injection, schedule: Q04DX003 (ip), vehicle: Klucel (hydroxypropylcellulose) (HPC)
[6] = dose: 100.0 mg/kg/injection, schedule: Q01DX009 (ip), vehicle: saline with Tween-80
[7] = dose: 200.0 mg/kg/injection, schedule: Q01DX009 (ip), vehicle: saline with Tween-80
[8] = dose: 400.0 mg/kg/injection, schedule: Q01DX009 (ip), vehicle: saline with Tween-80
[9] = dose: 100.0 mg/kg/injection, schedule: Q04DX002 (ip), vehicle: Klucel (hydroxypropylcellulose) (HPC)
[10] = dose: 200.0 mg/kg/injection, schedule: Q04DX002 (ip), vehicle: Klucel (hydroxypropylcellulose) (HPC)
[11] = dose: 400.0 mg/kg/injection, schedule: Q04DX002 (ip), vehicle: Klucel (hydroxypropylcellulose) (HPC)
[12] = dose: 50.0 mg/kg/injection, schedule: Q04DX002 (ip), vehicle: Klucel (hydroxypropylcellulose) (HPC)
[13] = dose: 100.0 mg/kg/injection, schedule: Q01DX001 (ip), vehicle: saline
[14] = dose: 200.0 mg/kg/injection, schedule: Q01DX001 (ip), vehicle: saline
[15] = dose: 400.0 mg/kg/injection, schedule: Q01DX001 (ip), vehicle: saline

Measured: T/C

O=c1[n-]cc(F)c(=O)[nH]1.O=c1[n-]cc(F)c(=O)[nH]1.[NH2-].[NH2-].[Pt+4]
inactive: dose: 6.25 mg/kg/injection, schedule: Q03HX024 (ip), vehicle: saline with Tween-80 97 % of control | dose: 12.5 mg/kg/injection, schedule: Q03HX024 (ip), vehicle: saline with Tween-80 101 % of control | dose: 25.0 mg/kg/injection, schedule: Q03HX024 (ip), vehicle: saline with Tween-80 99 % of control | dose: 50.0 mg/kg/injection, schedule: Q03HX024 (ip), vehicle: saline with Tween-80 118 % of control | dose: 100.0 mg/kg/injection, schedule: Q01DX009 (ip), vehicle: saline 115 % of control and 105 % of control | dose: 100.0 mg/kg/injection, schedule: Q04DX003 (ip), vehicle: saline 108 % of control and 92 % of control and 97 % of control | dose: 200.0 mg/kg/injection, schedule: Q01DX009 (ip), vehicle: saline 124 % of control and 114 % of control | dose: 200.0 mg/kg/injection, schedule: Q04DX003 (ip), vehicle: saline 93 % of control and 113 % of control and 97 % of control | dose: 400.0 mg/kg/injection, schedule: Q01DX009 (ip), vehicle: saline 109 % of control | dose: 400.0 mg/kg/injection, schedule: Q04DX003 (ip), vehicle: saline 120 % of control and 124 % of control and 101 % of control

Oc1ccc(CNCc2ccccc2)c2cccnc12
inactive: dose: 75.0 mg/kg/injection, schedule: Q01DX001 (ip), vehicle: saline 115 % of control

Nc1cc2c(cc1[N+](=O)[O-])-c1ccc([N+](=O)[O-])cc1C2=O
inactive: [1] 98 % of control | [2] 113 % of control | [3] 98 % of control | [4] 109 % of control

CC[C@@]1(O)C[C@H](OC2CC(N(C)C)C(OC3CC(O)C(O[C@@H]4O[C@@H](C)C(=O)C=C4N)C(C)O3)C(C)O2)c2c(cc3c(c2O)C(=O)c2c(O)ccc(O)c2C3=O)[C@H]1C(=O)OC (stereo not given in full)
inactive: dose: 0.05 mg/kg/injection, schedule: Q01DX009 (ip), vehicle: suspension in saline 117 % of control | dose: 0.05 mg/kg/injection, schedule: Q09DX009 (ip), vehicle: saline 104 % of control | dose: 0.1 mg/kg/injection, schedule: Q05DX005 (ip), vehicle: saline 106 % of control | dose: 0.1 mg/kg/injection, schedule: Q09DX009 (ip), vehicle: saline 106 % of control | dose: 0.2 mg/kg/injection, schedule: Q01DX009 (ip), vehicle: suspension in saline 111 % of control | dose: 0.2 mg/kg/injection, schedule: Q03DX003 (ip), vehicle: saline 118 % of control | dose: 0.2 mg/kg/injection, schedule: Q05DX005 (ip), vehicle: saline 122 % of control | dose: 0.2 mg/kg/injection, schedule: Q09DX009 (ip), vehicle: saline 111 % of control | dose: 0.4 mg/kg/injection, schedule: Q01DX001 (ip), vehicle: saline 111 % of control | dose: 0.4 mg/kg/injection, schedule: Q01DX009 (ip), vehicle: suspension in saline 100 % of control | dose: 0.4 mg/kg/injection, schedule: Q03DX003 (ip), vehicle: saline 108 % of control | dose: 0.8 mg/kg/injection, schedule: Q01DX001 (ip), vehicle: saline 118 % of control | dose: 0.8 mg/kg/injection, schedule: Q01DX009 (ip), vehicle: suspension in saline 100 % of control | dose: 1.6 mg/kg/injection, schedule: Q01DX001 (ip), vehicle: saline 113 % of control | dose: 1.6 mg/kg/injection, schedule: Q05DX005 (ip), vehicle: saline 115 % of control | dose: 1.6 mg/kg/injection, schedule: Q09DX009 (ip), vehicle: saline 104 % of control | dose: 3.2 mg/kg/injection, schedule: Q03DX003 (ip), vehicle: saline 101 % of control | dose: 3.2 mg/kg/injection, schedule: Q05DX005 (ip), vehicle: saline 118 % of control | dose: 6.4 mg/kg/injection, schedule: Q03DX003 (ip), vehicle: saline 122 % of control

O=C(/C=C\c1ccc(NCc2ccc(C(=O)O)cc2)cc1)CCl
inactive: dose: 25.0 mg/kg/injection, schedule: Q04DX003 (ip), vehicle: Klucel (hydroxypropylcellulose) (HPC) 100 % of control | [1] 91 % of control | dose: 50.0 mg/kg/injection, schedule: Q04DX003 (ip), vehicle: Klucel (hydroxypropylcellulose) (HPC) 90 % of control | [5] 95 % of control | [3] 93 % of control | [4] 98 % of control

Cn1nnnc1N/N=C/c1ccccc1
inactive: [6] 98 % of control | [7] 95 % of control | [8] 95 % of control

Cn1c(=O)c2c(nc(OC3CCCCCC3)n2C)n(C)c1=O
inactive: dose: 50.0 mg/kg/injection, schedule: Q01DX001 (ip), vehicle: other 101 % of control | dose: 100.0 mg/kg/injection, schedule: Q01DX001 (ip), vehicle: other 93 % of control | dose: 200.0 mg/kg/injection, schedule: Q01DX001 (ip), vehicle: other 98 % of control

Cc1ccc(S/C(=N\O)C(C)C)cc1
inactive: [9] 108 % of control | [10] 92 % of control | [11] 110 % of control

CCCCC(=O)N/N=C/c1ccc(I)cc1
inactive: [2] 91 % of control | [3] 87 % of control | [4] 91 % of control

Cc1cc(C)c2c(c1)C/C2=N/N=C1/Cc2cc(C)cc(C)c21
inactive: [12] 120 % of control | [9] 100 % of control | [10] 92 % of control

CC(=O)CC(C)(C)NC(=S)NN
inactive: [5] 91 % of control | dose: 200.0 mg/kg/injection, schedule: Q04DX003 (ip), vehicle: Klucel (hydroxypropylcellulose) (HPC) 101 % of control | dose: 400.0 mg/kg/injection, schedule: Q04DX003 (ip), vehicle: Klucel (hydroxypropylcellulose) (HPC) 91 % of control

CCCCCCCCCCCCCCCCN(C)S(=O)(=O)c1ccc2sc(SC)[n+](C)c2c1 (tested in a mixture with another compound)
inactive: [6] 94 % of control | dose: 100.0 mg/kg/injection, schedule: Q04DX003 (ip), vehicle: saline with Tween-80 98 % of control | [7] 94 % of control | dose: 200.0 mg/kg/injection, schedule: Q04DX003 (ip), vehicle: saline with Tween-80 102 % of control | [8] 102 % of control | dose: 400.0 mg/kg/injection, schedule: Q04DX003 (ip), vehicle: saline with Tween-80 96 % of control

O=S(Cc1ccc(Cl)cc1)C(Cl)(Cl)c1ccc(Cl)cc1 (stereo not given)
inactive: [9] 116 % of control | [10] 116 % of control | [11] 94 % of control

O=C1CCCCc2nn(c3ccccc23)C(=O)CCCCc2nn1c1ccccc21
inactive: dose: 25.0 mg/kg/injection, schedule: Q04DX002 (ip), vehicle: Klucel (hydroxypropylcellulose) (HPC) 90 % of control | [12] 97 % of control | [9] 93 % of control

CCCCC(=O)N/N=C/c1ccc(OC)c(O)c1
inactive: [13] 109 % of control | [14] 104 % of control | [15] 106 % of control

CN(C)C=Nc1ccc([N+](=O)[O-])cc1
inactive: dose: 50.0 mg/kg/injection, schedule: Q01DX001 (ip), vehicle: saline 89 % of control | [13] 89 % of control | [6] 96 % of control | [14] 96 % of control | [7] 89 % of control | [15] 91 % of control | [8] 90 % of control
